pIC50, pKd: −log10 of the molar value. Read-outs that look alike come from different tables or passages of the source.
How the values were obtained:
palmitoylated ER66 = assay: Native gel electrophoresis / Western blot of palmitoylated ER66 in eukaryotic cell-free expression system; format: biochemical, human; details: 2-bromopalmitate 100 µM
palmitoylated ER46 = assay: Native gel electrophoresis / Western blot of palmitoylated ER46 in eukaryotic cell-free expression system; format: biochemical, human; details: 2-bromopalmitate 100 µM
ER36 = target: ER36; design: method as in PMID 20197310; details: previous studies; cited from earlier work
human ER66 = target: T1, human ER66 (Homo sapiens, UniProt P03372); assay: Competitive [3H]-17β-estradiol ligand binding assay, ER66
T1 sequence (P03372 1-595): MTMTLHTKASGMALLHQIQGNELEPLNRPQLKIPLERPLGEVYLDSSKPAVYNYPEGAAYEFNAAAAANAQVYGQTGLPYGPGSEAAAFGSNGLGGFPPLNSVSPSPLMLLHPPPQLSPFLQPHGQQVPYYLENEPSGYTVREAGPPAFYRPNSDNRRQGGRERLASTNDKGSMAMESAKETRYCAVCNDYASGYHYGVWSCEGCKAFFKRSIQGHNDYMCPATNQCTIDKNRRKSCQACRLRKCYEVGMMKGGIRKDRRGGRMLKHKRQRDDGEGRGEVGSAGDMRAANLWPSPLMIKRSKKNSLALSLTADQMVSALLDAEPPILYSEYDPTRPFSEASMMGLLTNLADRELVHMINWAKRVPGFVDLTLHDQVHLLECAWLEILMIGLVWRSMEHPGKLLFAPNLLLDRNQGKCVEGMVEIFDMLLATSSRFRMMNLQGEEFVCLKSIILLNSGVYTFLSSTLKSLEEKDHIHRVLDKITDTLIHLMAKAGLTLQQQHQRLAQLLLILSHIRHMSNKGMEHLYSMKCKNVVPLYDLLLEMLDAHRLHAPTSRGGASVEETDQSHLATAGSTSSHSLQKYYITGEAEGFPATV

human ER46 = target: T2, human ER46 (Homo sapiens, UniProt P03372); assay: Competitive [3H]-17β-estradiol ligand binding assay, ER46
T2 sequence (P03372 1-422 isoform P03372-3): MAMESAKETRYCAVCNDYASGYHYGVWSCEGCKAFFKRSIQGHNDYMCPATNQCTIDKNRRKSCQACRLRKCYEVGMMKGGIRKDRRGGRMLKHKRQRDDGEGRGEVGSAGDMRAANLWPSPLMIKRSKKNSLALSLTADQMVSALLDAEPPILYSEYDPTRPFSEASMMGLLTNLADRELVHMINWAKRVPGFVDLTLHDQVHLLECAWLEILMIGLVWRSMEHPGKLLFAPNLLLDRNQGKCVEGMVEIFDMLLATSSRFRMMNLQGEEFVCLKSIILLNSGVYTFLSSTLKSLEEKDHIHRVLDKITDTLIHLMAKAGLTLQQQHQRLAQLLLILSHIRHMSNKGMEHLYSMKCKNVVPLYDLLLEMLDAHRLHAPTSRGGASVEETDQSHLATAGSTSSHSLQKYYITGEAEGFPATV

ERα over ERβ = details: cited from earlier work
[1] = ratio of IC50 values of 17β-estradiol and compound, 17β-estradiol set at 100

Compound: CCCCCCCCCCCCCCC(Br)C(=O)O (stereo not drawn) [2-bromopalmitate, 2-bromohexadecanoic acid]
- expression of palmitoylated ER66 (palmitoylated ER66): abolished
- expression of palmitoylated ER46 (palmitoylated ER46): abolished

Compound: C[C@]12CC[C@@H]3c4ccc(O)cc4CC[C@H]3[C@@H]1CC[C@@H]2O [17β-estradiol]
- pKd (ER36): 8.66

Compound: Oc1ccc(-c2c(-c3ccccc3)nn3c(C(F)(F)F)cc(C(F)(F)F)nc23)cc1 [PHTPP, 4-[2-phenyl-5,7-bis(trifluoromethyl)pyrazolo[1,5-a]pyrimidin-3-yl]phenol]
- pIC50 (human ER66): 5.88
- RBA ER66 (human ER66; [1]): 0.003
- pIC50 (human ER46): 5.48
- RBA ER46 (human ER46): 0.001

Compound: O=c1c(-c2ccc(O)cc2)coc2cc(O)ccc12 [Daidzein, daidzein]
- RBA ER66 (human ER66; [1]): 0.003
- RBA ER46 (human ER46; [1]): 0.002

Compound: methyl-piperidino-pyrazole dihydrochloride [MPP]
- RBA ER66 (human ER66): 0.305
- RBA ER46 (human ER46): 0.498
- higher affinity for ER46 when compared to ICI 182,780 (human ER46): four-fold
- selectivity for ERα over ERβ (ERα over ERβ): 200 fold

Compound: CCCc1c(-c2ccc(O)cc2)nn(-c2ccc(O)cc2)c1-c1ccc(O)cc1 [PPT, propylpyrazole triol]
- RBA ER66 (human ER66; [1]): 42052
- RBA ER46 (human ER46; [1]): 23016
